Experimental data taken from patent publication US20260345623A1, “NOVEL […] HETEROCYCLIC CARBALDEHYDE COMPOUND AND PHARMACEUTICAL COMPOSITION, CONTAINING SAME, FOR IRE1alpha INHIBITION” (HANMI PHARM. CO., LTD., priority 2022, published 2026).
Where two headings read alike, the source gives them in different places.

Molecular target: T1, spliced XBP1 mRNA (target of IRE endonuclease) in MCF-7 cancer cells (Homo sapiens, UniProt O75460)
T1 construct: tunicamycin ER stress; RT-PCR of spliced XBP1 mRNA (RNase domain activity)
Test: Spliced XBP1 mRNA Measurement Test (RT-PCR, tunicamycin-induced ER stress, MCF-7 cells)
Assay type: cell-based
Experimental: A reverse transcription polymerase chain reaction is a test method in which RNA is extracted from cells, reverse transcriptase is used to make cDNA, and relative mRNA expression level is measured through a polymerase chain reaction.
Briefly, MCF-7 cells were seeded in a 12-well plate and cultured in an incubator including 5% CO2 for one day. On the next day, compounds, which were 10-fold serially diluted from 10,000 nM, were pre-treated for 1 hour, and then, treated with 2 μg/mL tunicamycin for 6 or 24 hours to induce endoplasmic reticulum stress, followed by cell lysis to obtain RNA. RNA was subjected to the procedure of RNeasy Kits (Qiagen, 74106), and 5 μg of RNA sample was dissolved in a sample including reverse transcriptase and dNTP, and reverse transcription reaction was performed with a thermal cycler. The amount of mRNA of each of spliced XBP1 and total XBP1 was measured by a polymerase chain reaction through real time PCR by mixing each cDNA sample with a PCR reaction mixture including a primer pair capable of binding specifically to each target and SYBR green dye. The expression level of spliced XBP1 was corrected by the total expression level of XBP1, and the relative expression levels of spliced XBP1 between samples were compared and analyzed.

[1] = 1 hour pre-treatment with compound, 2 μg/mL tunicamycin 6 or 24 hours, spliced XBP1 corrected by total XBP1, read-out: XBP1 mRNA (IC50)
[2] = read-out: XBP1 mRNA (IC50), 1 hour pre-treatment with compound, 2 μg/mL tunicamycin 6 or 24 hours, spliced XBP1 corrected by total XBP1

T1 sequence (O75460 19-977): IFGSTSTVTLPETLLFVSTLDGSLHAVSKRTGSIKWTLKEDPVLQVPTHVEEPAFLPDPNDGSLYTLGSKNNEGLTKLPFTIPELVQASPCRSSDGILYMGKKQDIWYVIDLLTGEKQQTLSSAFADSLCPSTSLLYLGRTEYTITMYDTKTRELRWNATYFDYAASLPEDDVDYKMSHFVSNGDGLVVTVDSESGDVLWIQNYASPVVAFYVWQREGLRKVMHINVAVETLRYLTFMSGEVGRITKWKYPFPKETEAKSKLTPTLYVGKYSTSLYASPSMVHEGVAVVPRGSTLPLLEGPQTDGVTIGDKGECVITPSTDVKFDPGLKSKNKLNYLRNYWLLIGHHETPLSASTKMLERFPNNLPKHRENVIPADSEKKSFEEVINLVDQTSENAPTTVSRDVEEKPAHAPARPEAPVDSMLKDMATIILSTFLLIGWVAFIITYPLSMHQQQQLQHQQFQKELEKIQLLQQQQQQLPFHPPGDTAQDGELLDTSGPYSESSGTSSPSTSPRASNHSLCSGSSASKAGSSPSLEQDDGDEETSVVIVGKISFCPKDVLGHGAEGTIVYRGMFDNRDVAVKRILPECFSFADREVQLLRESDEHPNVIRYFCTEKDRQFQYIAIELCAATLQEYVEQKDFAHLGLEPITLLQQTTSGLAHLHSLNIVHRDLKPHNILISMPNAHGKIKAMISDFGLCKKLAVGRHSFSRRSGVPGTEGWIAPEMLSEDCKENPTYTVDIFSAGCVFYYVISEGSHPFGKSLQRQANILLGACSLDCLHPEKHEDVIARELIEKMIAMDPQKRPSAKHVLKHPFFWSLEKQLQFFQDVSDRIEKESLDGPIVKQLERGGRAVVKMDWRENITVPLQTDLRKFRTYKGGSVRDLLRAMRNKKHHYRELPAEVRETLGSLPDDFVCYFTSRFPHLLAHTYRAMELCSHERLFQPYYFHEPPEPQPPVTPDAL

| Structure (SMILES) | IC50 [1] [nM] | IC50 [2] [nM] |
| --- | --- | --- |
| Cc1c(CC(=O)N2CCOCC2)c(=O)oc2c(C=O)c(O)c3c(c12)CCO3 [Example 1, 4-hydroxy-9-methyl-8-(2-morpholino-2-oxoethyl)-7-oxo-1,7-dihydro-2H-furo[3,2-f]chromene-5-carbaldehyde] | < 100 |  |
| Cc1c(CC(=O)N2CCOCC2)c(=O)oc2c(C=O)c(O)c3c(c12)OCO3 [Example 2, 4-hydroxy-9-methyl-8-(2-morpholino-2-oxoethyl)-7-oxo-7H-[1,3]dioxolo[4,5-f]chromene-5-carbaldehyde] | 100 to 200 |  |
| Cc1c(CC(=O)N2CCOCC2)c(=O)oc2c(C=O)c(O)c3c(c12)CCCO3 [Example 3, 6-hydroxy-1-methyl-2-(2-morpholino-2-oxoethyl)-3-oxo-3,8,9,10-tetrahydropyrano[3,2-f]chromene-5-carbaldehyde] | < 100 |  |
| Cc1c(CC(=O)N2CCC(C)CC2)c(=O)oc2c(C=O)c(O)c3c(c12)CCCO3 [Example 4, 6-hydroxy-1-methyl-2-(2-(4-methylpiperidin-1-yl)-2-oxoethyl)-3-oxo-3,8,9,10-tetrahydropyrano[3,2-f]chromene-5-carbaldehyde] | > 200 |  |
| Cc1c(CC(=O)N2CCCC2)c(=O)oc2c(C=O)c(O)c3c(c12)CCCO3 [Example 5, 6-hydroxy-1-methyl-3-oxo-2-(2-oxo-2-(pyrrolidin-1-yl)ethyl)-3,8,9,10-tetrahydropyrano[3,2-f]chromene-5-carbaldehyde] | < 100 |  |
| Cc1c(CC(=O)N2CCN(C)CC2)c(=O)oc2c(C=O)c(O)c3c(c12)CCCO3 [Example 6, 6-hydroxy-1-methyl-2-(2-(4-methylpiperazin-1-yl)-2-oxoethyl)-3-oxo-3,8,9,10-tetrahydropyrano[3,2-f]chromene-5-carbaldehyde] |  | < 100 |
| Cc1c(CC(=O)N2CCN(C(C)C)CC2)c(=O)oc2c(C=O)c(O)c3c(c12)CCCO3 [Example 7, 6-hydroxy-2-(2-(4-isopropylpiperazin-1-yl)-2-oxoethyl)-1-methyl-3-oxo-3,8,9,10-tetrahydropyrano[3,2-f]chromene-5-carbaldehyde] |  | 100 to 200 |
| CCNC(=O)Cc1c(C)c2c3c(c(O)c(C=O)c2oc1=O)OCC3 [Example 8, N-ethyl-2-(5-formyl-4-hydroxy-9-methyl-7-oxo-1,7-dihydro-2H-furo[3,2-f]chromen-8-yl)acetamide] | < 100 |  |
| CCN(CC)C(=O)Cc1c(C)c2c3c(c(O)c(C=O)c2oc1=O)OCC3 [Example 9, N,N-diethyl-2-(5-formyl-4-hydroxy-9-methyl-7-oxo-1,7-dihydro-2H-furo[3,2-f]chromen-8-yl)acetamide] | < 100 |  |
| Cc1c(CC(=O)N2CCC(F)(F)C2)c(=O)oc2c(C=O)c(O)c3c(c12)CCCO3 [Example 10, 2-(2-(3,3-difluoropyrrolidin-1-yl)-2-oxoethyl)-6-hydroxy-1-methyl-3-oxo-3,8,9,10-tetrahydropyrano[3,2-f]chromene-5-carbaldehyde] | < 100 |  |
| Cc1c(CC(=O)N2CCC(C)C2)c(=O)oc2c(C=O)c(O)c3c(c12)CCCO3 (stereo not shown) [Example 11, 6-hydroxy-1-methyl-2-(2-(3-methylpyrrolidin-1-yl)-2-oxoethyl)-3-oxo-3,8,9,10-tetrahydropyrano[3,2-f]chromene-5-carbaldehyde] | < 100 |  |
| Cc1c(CC(=O)N2CCC(C)(C)C2)c(=O)oc2c(C=O)c(O)c3c(c12)CCCO3 [Example 12, 2-(2-(3,3-dimethylpyrrolidin-1-yl)-2-oxoethyl)-6-hydroxy-1-methyl-3-oxo-3,8,9,10-tetrahydropyrano[3,2-f]chromene-5-carbaldehyde] | 100 to 200 |  |
| Cc1c(CC(=O)N2CCC2)c(=O)oc2c(C=O)c(O)c3c(c12)CCCO3 [Example 13, 2-(2-(azetidin-1-yl)-2-oxoethyl)-6-hydroxy-1-methyl-3-oxo-3,8,9,10-tetrahydropyrano[3,2-f]chromene-5-carbaldehyde] | 100 to 200 |  |
| COC1CCN(C(=O)Cc2c(C)c3c4c(c(O)c(C=O)c3oc2=O)OCCC4)C1 (stereo not shown) [Example 14, 6-hydroxy-2-(2-(3-methoxypyrrolidin-1-yl)-2-oxoethyl)-1-methyl-3-oxo-3,8,9,10-tetrahydropyrano[3,2-f]chromene-5-carbaldehyde] | 100 to 200 |  |
| COC1CN(C(=O)Cc2c(C)c3c4c(c(O)c(C=O)c3oc2=O)OCCC4)C1 [Example 15, 6-hydroxy-2-(2-(3-methoxyazetidin-1-yl)-2-oxoethyl)-1-methyl-3-oxo-3,8,9,10-tetrahydropyrano[3,2-f]chromene-5-carbaldehyde] | 100 to 200 |  |
| Cc1c(CC(=O)N2CCC(F)C2)c(=O)oc2c(C=O)c(O)c3c(c12)CCCO3 (stereo not shown) [Example 16, 2-(2-(3-fluoropyrrolidin-1-yl)-2-oxoethyl)-6-hydroxy-1-methyl-3-oxo-3,8,9,10-tetrahydropyrano[3,2-f]chromene-5-carbaldehyde] | > 200 |  |

| Structure (SMILES) | IC50 [1] [nM] | IC50 [2] [nM] |
| --- | --- | --- |
| CCNC(=O)Cc1c(C)c2c3c(c(O)c(C=O)c2oc1=O)OCCC3 [Example 17, N-ethyl-2-(5-formyl-6-hydroxy-1-methyl-3-oxo-3,8,9,10-tetrahydropyrano[3,2-f]chromen-2-yl)acetamide] | < 100 |  |
| CCc1c(CC(=O)N2CCCC2)c(=O)oc2c(C=O)c(O)c3c(c12)CCCO3 [Example 18, 1-ethyl-6-hydroxy-3-oxo-2-(2-oxo-2-(pyrrolidin-1-yl)ethyl)-3,8,9,10-tetrahydropyrano[3,2-f]chromene-5-carbaldehyde] | > 200 |  |
| Cc1c(CC(=O)N2CC(F)C2)c(=O)oc2c(C=O)c(O)c3c(c12)CCCO3 [Example 19, 2-(2-(3-fluoroazetidin-1-yl)-2-oxoethyl)-6-hydroxy-1-methyl-3-oxo-3,8,9,10-tetrahydropyrano[3,2-f]chromene-5-carbaldehyde] | 100 to 200 |  |
| Cc1c(CC(=O)N2CCC3(CC3)C2)c(=O)oc2c(C=O)c(O)c3c(c12)CCCO3 [Example 20, 6-hydroxy-1-methyl-3-oxo-2-(2-oxo-2-(5-azaspiro[2.4]heptan-5-yl)ethyl)-3,8,9,10-tetrahydropyrano[3,2-f]chromene-5-carbaldehyde] | 100 to 200 |  |
| Cc1c(CC(=O)N2CCCCC2)c(=O)oc2c(C=O)c(O)c3c(c12)CCCO3 [Example 21, 6-hydroxy-1-methyl-3-oxo-2-(2-oxo-2-(piperidin-1-yl)ethyl)-3,8,9,10-tetrahydropyrano[3,2-f]chromene-5-carbaldehyde] | > 200 |  |
| Cc1c(CC(N)=O)c(=O)oc2c(C=O)c(O)c3c(c12)CCCO3 [Example 22, 2-(5-formyl-6-hydroxy-1-methyl-3-oxo-3,8,9,10-tetrahydropyrano[3,2-f]chromen-2-yl)acetamide] | > 200 |  |
| CC(C)c1c(CC(=O)N2CCCC2)c(=O)oc2c(C=O)c(O)c3c(c12)CCCO3 [Example 23, 6-hydroxy-1-isopropyl-3-oxo-2-(2-oxo-2-(pyrrolidin-1-yl)ethyl)-3,8,9,10-tetrahydropyrano[3,2-f]chromene-5-carbaldehyde] | 100 to 200 |  |
| COCCNC(=O)Cc1c(C)c2c3c(c(O)c(C=O)c2oc1=O)OCCC3 [Example 24, 2-(5-formyl-6-hydroxy-1-methyl-3-oxo-3,8,9,10-tetrahydropyrano[3,2-f]chromen-2-yl)-N-(2-methoxyethyl)acetamide] | < 100 |  |
| CCN(CC)C(=O)Cc1c(C)c2c3c(c(O)c(C=O)c2oc1=O)OCCC3 [Example 25, N,N-diethyl-2-(5-formyl-6-hydroxy-1-methyl-3-oxo-3,8,9,10-tetrahydropyrano[3,2-f]chromen-2-yl)acetamide] | < 100 |  |
| CC(=O)N1CCN(C(=O)Cc2c(C)c3c4c(c(O)c(C=O)c3oc2=O)OCCC4)CC1 [Example 26, 2-(2-(4-acetylpiperazin-1-yl)-2-oxoethyl)-6-hydroxy-1-methyl-3-oxo-3,8,9,10-tetrahydropyrano[3,2-f]chromene-5-carbaldehyde] | > 200 |  |
| Cc1c(CC(=O)N2CC3CC2CO3)c(=O)oc2c(C=O)c(O)c3c(c12)CCCO3 (stereo not shown) [Example 27, 2-(2-(2-oxa-5-azabicyclo[2.2.1]heptan-5-yl)-2-oxoethyl)-6-hydroxy-1-methyl-3-oxo-3,8,9,10-tetrahydropyrano[3,2-f]chromene-5-carbaldehyde] | < 100 |  |
| Cc1c(CC(=O)N2CCSCC2)c(=O)oc2c(C=O)c(O)c3c(c12)CCCO3 [Example 28, 6-hydroxy-1-methyl-3-oxo-2-(2-oxo-2-thiomorpholinoethyl)-3,8,9,10-tetrahydropyrano[3,2-f]chromene-5-carbaldehyde] | 100 to 200 |  |
| Cc1c(CC(=O)NCCN2CCOCC2)c(=O)oc2c(C=O)c(O)c3c(c12)CCCO3 [Example 29, 2-(5-formyl-6-hydroxy-1-methyl-3-oxo-3,8,9,10-tetrahydropyrano[3,2-f]chromen-2-yl)-N-(2-morpholinoethyl)acetamide] | > 200 |  |
| Cc1c(CC(=O)N2CCSC2)c(=O)oc2c(C=O)c(O)c3c(c12)CCCO3 [Example 30, 6-hydroxy-1-methyl-3-oxo-2-(2-oxo-2-(thiazolidin-3-yl)ethyl)-3,8,9,10-tetrahydropyrano[3,2-f]chromene-5-carbaldehyde] | < 100 |  |
| Cc1c(CC(=O)N2CCNCC2)c(=O)oc2c(C=O)c(O)c3c(c12)CCCO3 [Example 31, 6-hydroxy-1-methyl-3-oxo-2-(2-oxo-2-(piperazin-1-yl)ethyl)-3,8,9,10-tetrahydropyrano[3,2-f]chromene-5-carbaldehyde] | > 200 |  |
